For assay [1], the system named is stage 2 neural stem cells (cells treated with stage 1 and stage 2 media). Nature of the assay: HD-DoE experiment for stage 3 recipe, optimized for ASCL1. Type of assay: cell-based, human. The following applies: for factor contribution on expression of ASCL1: positive, model optimized for maximum expression of ASCL1 at 1700, FIG. 9. How it is done:
To further guide the cells to medial ganglionic eminence progenitor fate, an additional HD-DoE experiment was performed for 3 days on cells that were treated with stage 1 and stage 2 media for total of 6 days prior to start of the experiment. This experiment included 13 effectors, LDN193189, A8301, GNF5837, AZD3147, GSI-XX, Takinib, PD0325901, PD173074, BLU9931, IGF-1, MHY1485, Purmorphamine and Prostratin. In this model, we focused on maximum expression of genes expressed in neuronal progenitor cells in medial ganglionic eminence (MGE) region including ASCL1, LHX6 and DLX1 (Silberberg et al. (2016) Neuron 92:59-74). When the model was optimized for maximum expression of ASCL1 at 1700, A8301, GSI-XX, Purmorphamine and Takinib, which is an inhibitor of TAK1 pathway, had the highest factor contributions, 18.1, 14.1, 12.7 and 10.1 respectively. […]

The subject of assay [2] is stage 2 neural stem cells. Nature of the assay: factor criticality analysis (dynamic profile analysis) of stage 3 recipe. Type of assay: cell-based, human. More on the design: unit not given here. As to conditions: other five factors present; for expression level of DLX1 when the effector is removed: 220 with all six factors; for expression level of LHX6 when the effector is removed: 240 with all six factors; for expression level of ASCL1 when the effector is removed: 1650 with all six factors. The method, then: To assess the impact of the elimination of each validated factor, dynamic profile analysis was used and compared the expression level of genes of interest in absence of each finalized factor while others are present. […] In the stage 3 recipe, each of the six finalized factors were removed while the other five factors remained present and the expression levels of ASCL1, DLX1 and LHX6 were assessed compared to the presence of all six factors. […] As expected, in the absence of IGF-1, the value of DLX1 increases to 410, however, ASCL1 and LHX6 decreased to 1390 and 220, respectively.

In assay [3] the test system is human pluripotent stem cells. Nature of the assay: additional HD-DoE experiment for stage 1 (forebrain differentiation from pluripotency), optimized for FEZF2. Type of assay: cell-based. As to conditions: dynamic profile, FIG. 6. The method, then: To identify the recipe for stage 1 of differentiation, 96 different combinations of effectors generated using Design-of-Experiments compression through D-optimality were robotically prepared. The effector combinations were prepared in a basal media and were subsequently added to the cells, which were then allowed to differentiate. Three days later RNA extraction was performed, and gene expression was obtained using quantitative PCR analysis. The data were normalized and modeled using partial least squares regression analysis to the effector design, resulting in the generation of gene-specific models, which after model tuning for maximal Q2 predictive power, provided explanation of the effectors ability to control the expression of individual genes, combinatorially, and individually. Solutions within the tested space could then be explored to address desirability.
To further enhance the conditions for forebrain differentiation from pluripotency, an additional HD-DoE experiment was performed. Additional gene regulatory models were obtained that were used for preparation of the differentiation protocol. The factors in this experiment included LDN193189, PD173074, BLU9931, Purmorphamine, SC79, MK2206, ZM336372, PD0325901, CHIR99021, XAV939, UCLA-GP130, Tofacitinib and GO6983. […] Dynamic profile analysis was also used to assess the interaction between the effectors.

Assay [4] deals with forebrain-committed neural stem cells (stage 1 neural stem cells). Nature of the assay: HD-DoE 12-factor experiment for stage 2 recipe, optimized for NKX2-1. Type of assay: cell-based, human. As to conditions: for impact on expression of NKX2-1: model maximized for NKX2-1 / dynamic profile, FIG. 7 and 8. How it is done: To further guide the differentiation of forebrain-committed neural stem cells to ventral forebrain neural stem cells at stage 2, a HD-DoE experiment was performed for 3 days after termination of stage 1 treatment. At this time, we focused on maximum expression of NKX2-1 that is expressed in ventral forebrain region and minimum expression of PAX6 that is expressed in dorsal forebrain region. This 12-factor experiment included LDN193189, BMP7, PD0325901, MK2206, A8301, XAV939, CHIR99021, Purmorphamine, SANT-1, AGN193109, TTNPB and GSI-XX.

The test system of a further assay is MGE progenitor cells. Nature of the assay: HD-DoE 12-factor experiment for stage 4 recipe, optimized for MEF2C. Type of assay: cell-based, human. From the text: These effectors are small molecules or proteins. They are commonly used during stepwise differentiation of stem cells to specific fates. The choice of the effectors was based on current literature on neural induction in forebrain region of developing brain and differentiation of stem cells to neural progenitors.
To evaluate the effectors, experiments with at least 8 factors were designed that can assess the response of cells to 48 or more different combinations of effectors in a range of concentrations. To analyze the models, we focused on expression of genes involved in development and patterning of the forebrain interneurons maturation including LHX6 (Yuan et al. (2018) Elife, 7:e37382), DLX5 (Wang et al. (2010) J. Neuroscience 30:5334-5345), ASCL1 (Shi et al. (2016) J. Biol. Chem. 291:13560-13570). At later stages we focused on interneuron maturation genes including Parvalbumin and absence of somatostatin (Horn and Nicoll (2018) Proc. Natl. Acad. Sci. 115:589-594). The impacts of each effector on gene expression level are defined by a parameter called factor contribution that is calculated for each effector during the modeling.
To identify the recipe of stage 4 of differentiation, 48 different combinations of effectors generated using Design-of-Experiments compression through D-optimality were robotically prepared. The effector combinations were prepared in a basal media and were subsequently added to the cells, which were then allowed to differentiate. Three days later RNA extraction was performed, and gene expression was obtained using quantitative PCR analysis. The data was normalized and modeled using partial least squares regression analysis to the effector design, resulting in the generation of gene-specific models, which after model tuning for maximal predictive power, provided explanation of the effectors ability to control the expression of individual genes, combinatorically, and individually. Solutions within the tested space could then be explored to address desirability. […] Valproic Acid can inhibit histone deaceylases and increase γ-aminobutyric acid (GABA). […] GDNF is the […] Glial cell line-derived neurotrophic factor and can activate the GDNF pathway.
To find the set of factors that have the potential to optimize MEF2C in this experiment, a new assessment was done through dynamic profile analysis with focus on maximal expression of MEF2C (FIG. 20).

For assay [5], the system named is human pluripotent stem cells. Nature of the assay: HD-DoE 12-factor experiment for stage 1 recipe, gene expression by quantitative PCR after 3 days. Type of assay: cell-based. An excerpt: This example utilizes a method of High-Dimensional Design of Experiments (HD-DoE), as previously described in Bukys et al. (2020) […] 23:101346. The method employs computerized design geometries to simultaneously test multiple process inputs and offers mathematical modeling of a deep effector/response space. The method allows for finding combinatorial signaling inputs that control a complex process, such as during cell differentiation. It allows testing of multiple plausible critical process parameters, as such parameters impact output responses, such as gene expression. Because gene expression provides hallmark features of the phenotype of, for example, a human cell, the method can be applied to identify, and understand, which signaling pathways control cell fate. In the current example, the HD-DOE method was applied with the intent to find conditions for induction of […] neural progenitor-expressed genes, directly from the pluripotent stem cell state. To develop the recipe for each stage, the impact of agonists and antagonists of multiple signaling pathways (herein called effectors) on the expression of two sets of 53 pre-selected genes, after a 3-day treatment, has been tested and modeled. These effectors are small molecules or proteins that are commonly used during stepwise differentiation of stem cells to specific fates. Choice of the effectors were based on current literature on neural induction in forebrain region of developing brain and differentiation of stem cells to neural progenitors. To test the effectors, experiments with at least 8 factors were designed that can assess the response of cells to 48 or more different combinations of effectors in a range of concentrations. To analyze the models, we focused on expression of genes involved in development and patterning of the anterior neuroectoderm and forebrain including OTX2 (Hoch et al. (2015) Cell Reports 12:482-494), SIX3 (Lagutin et al. (2003) Genes & Development 17:368-379) and FEZF2 (Zhang et al. (2014) Development 141:4794-[…]). At later stages we focused on dorsoventral patterning of telencephalon and gene expressed in ventral forebrain including NKX2-1 and absence of PAX6 which is a dorsal forebrain marker (Stoykova et al. (2000) J. Neurosci. 20:8042-8050). The impact of each effector on gene expression level is defined by a parameter called factor contribution that is calculated for each effector during the modeling. To identify the recipe for stage 1 of differentiation, 96 different combinations of effectors generated using Design-of-Experiments compression through D-optimality were robotically prepared. The effector combinations were prepared in a basal media and were subsequently added to the cells, which were then allowed to differentiate. Three days later RNA extraction was performed, and gene expression was obtained using quantitative PCR analysis. […] Solutions within the tested space could then be explored to address desirability. Optimizing for maximal expression of SIX3 at 3300 and FEZF2 1355 expression values led to robust solutions. This model was derived from testing 12 effectors including AGN193109, LDN193189, CHIR99021, XAV939, IGF2, Purmorphamine, 4-oxo-RA, TTNPB, SR11237, FGF8, PD0325901 and […]. […] The model was also optimized for maximum expression of FEZF2 separately at 3576 expression value to find any additional factors that can boost expression of forebrain genes. […] To find the set of factors that have the potential to optimize all 3 genes in this experiment, a new assessment was done through dynamic profile analysis with focus on maximal expression of OTX2, FEZF2 and SIX3.

Where [6] appears, read: dynamic profile analysis, FIG. 10.
Setting [7] is: dynamic profile analysis, FIG. 4.

“And” between values parts separate entries of the source, which are not always exact repeats. Equal entries are not always repeated. “Also recorded” adds a separate entry of the source.

`Cc1cccc(-c2nn(C(=S)Nc3ccccc3)cc2-c2ccnc3ccccc23)n1` [A8301]: in assay [1] (setting [6]), the “impact on expression of ASCL1” value is “positive trends; also recorded: Positive impact”, the “impact on expression of DLX1” value is reported as “did not have a significant negative impact” and the “impact on expression of LHX6” value is on record as “positive trends; also recorded: Positive impact”. For the same molecule, the “factor contribution on expression of ASCL1” value in assay [1] is 18.1 and 18. Also, in assay [2], the “expression level of DLX1 when the effector is removed” value (“expression level of DLX1” for short) is on record as “did not change significantly”, the “expression level of LHX6 when the effector is removed” value (shortened to “expression level of LHX6”) is “did not change significantly” and the “expression level of ASCL1 when the effector is removed” value came to 1000.

As for `Cc1ccc(NC(=O)Nc2cc(C(F)(F)F)ccc2F)cc1Nc1ccc2c(c1)NC(=O)/C2=C\c1ccc[nH]1` [GNF5837], the “factor contribution on expression of ASCL1” value in assay [1] came out at 9.4. Besides, in assay [2], the “expression level of DLX1” value is “did not have a significant impact”, the “expression level of LHX6” value worked out at 160 and the “expression level of ASCL1 when the effector is removed” value was 1300.

Regarding `COc1ccc2c(c1)c(C1=C(c3c[nH]c4ccccc34)C(=O)NC1=O)cn2CCCN(C)C` [GO6983], the “impact on expression of FEZF2” value in assay [3] is recorded as “positive impact”.

Take `NC1(c2ccc(-c3nc4ccn5c(=O)[nH]nc5c4cc3-c3ccccc3)cc2)CCC1` [MK2206]: the “impact on expression of FEZF2” value in assay [3] is given as “positive impact”. Also, in assay [4], the “impact on expression of NKX2-1” value is on record as “increase its expression level”.

As for `Cc1nn(-c2ccccc2)c(C)c1/C=N/N1CCN(Cc2ccccc2)CC1` [SANT-1], the “impact on expression of NKX2-1” value in assay [4] is on record as “negative impact”. For the same molecule, the “factor contribution on expression of NKX2-1” value in assay [4] (negative role, model optimized for maximum expression of NKX2-1, FIG. 7) was 26.3.

Consider `NC(=O)c1ccc(-c2nc(-c3ccc4c(c3)OCO4)c(-c3ccccn3)[nH]2)cc1` [SB431542], for which the “impact on expression of MEF2C” value with MGE progenitor cells (dynamic profile analysis, FIG. 20) was “negative effect”. Further, the “factor contribution on expression of MEF2C” value in the assay on MGE progenitor cells (significant negative effect, model optimized for maximal expression of MEF2C) worked out at 7.9.

On to `C/C(=C\c1ccc(C(=O)O)cc1)c1ccc2c(c1)C(C)(C)CCC2(C)C` [TTNPB], for which, in assay [5] (FIG. 2 legend, model optimized for maximum expression of SIX3 as printed), the “factor contribution, important input for high expression of SIX3” value came out at 23.7. For the same molecule, in assay [5] (setting [7]), the “impact on expression of OTX2” value is recorded as “negative impact” and the “impact on expression of SIX3” value is reported as “negative impact”. Moreover, in assay [5] (positive impact, model optimized for maximum expression of FEZF2), the “factor contribution on expression of FEZF2” value is listed as 24. The “factor contribution on expression of SIX3” value in assay [5] (significant negative effect, model optimized for maximal expression of SIX3) was 21. Further, the “factor contribution on expression of OTX2” value in assay [5] (significant negative impact, model of maximum expression of OTX2) was 29 and 28.8. For the same molecule, the “impact on expression of NKX2-1” value in assay [4] is “negative impact”.

Take `CCCn1/c(=N/C(=O)c2cccc(C(N)=O)c2)[nH]c2ccccc21` [Takinib]: the “factor contribution on expression of ASCL1” value in assay [1] turned out to be 10.1. Also, in assay [2], the “expression level of DLX1” value amounted to 180 and the “expression level of LHX6” value was 170.

Source of the values: patent US20230332103A1, “Methods and Compositions for Generating Human Forebrain Neural Progenitor Cells and for Maturation Thereof to Parvalbumin+ Interneurons” (Trailhead Biosystems Inc., priority 2021, published 2023).
